Test results: paper PMC3261944, “The in Vitro Estrogenic Activities of Polyfluorinated Iodine Alkanes” (Environmental Health Perspectives, 2011)
Like-named read-outs stand apart in the source and are kept apart here.

How the values were obtained:
MCF-7BUS cells = experiment: E-screen assay (MCF-7BUS cell proliferation, WST-1); assay type: cell-based, Human; conditions: for E-screen Maximum induction (%): percentage of the maximum proliferation effect of tested compound to that of E2, 6 days exposure; for EC50: Homo sapiens, MCF7/BUS, 144 h, read-out: E-screen EC50; for E-screen Relative potency: ratio of EC50 of E2 to that of test compound; for Proliferation / estrogenic effect in the E-screen assay (in words): within the tested concentration ranges
Procedure: (§1) Cell culture. Human MCF-7BUS breast adenocarcinoma cells and MVLN cells were cultured in 100-mm culture dishes in a humidified atmosphere of 5% CO2 at 37°C. Cells were maintained in Dulbecco’s modified Eagle’s medium (DMEM)/F-12 (Hyclone, Logan, UT, USA) containing 10% fetal bovine serum, 100 U/mL streptomycin-penicillin, 2 mM L-glutamine, and 1% insulin-transferrin-selenium supplement (all from Gibco, Grand Island, NY, USA).
E-screen assay. MCF-7BUS cells were kindly provided by A.M. Soto and C. Sonnenschein (Tufts University School of Medicine, Boston, MA, USA). In response to ERα agonists, the mitotic effect leads to the proliferation of MCF-7BUS cells. […] Cells were trypsinized and plated into the interior 60 wells of 96-well plates at the density of 3,000 cells/well. Before each experiment, cells were starved in steroid-free (SF) medium for 48 hr to minimize the basal hormonal activity during assays. SF medium consisted of phenol red–free DMEM/F-12 (Hyclone) supplemented with 5% dextran-charcoal-treated fetal bovine serum (Hyclone), 100 U/mL streptomycin-penicillin, and 2 mM L-glutamine. […] We used a WST-1 proliferation kit (Roche Diagnostics, Mannheim, Germany) to assess proliferation after 6 days of exposure according to the kit instructions. The WST-1 assay is based on the enzymatic cleavage of the tetrazolium salt WST-1 to formazan by cellular mitochondrial dehydrogenases present in viable cells. The absorbance of the WST-1 solution was detected by a microplate reader (Varioskan Flash, Thermo Fisher Scientific, Waltham, MA, USA) at 450 nm, with the reference wave length at 690 nm. The cell proliferation effect was calculated from the solvent control (0.1% ethanol)-corrected absorbance and expressed as the percentage of maximal absorbance of the positive control. Three replicates were used in each experiment.
(§2) The concentration–response analyses were performed with four-parameter logistic curve regression analysis according to the following formula:
(§3) y = minimum + (maximum – minimum) ÷ [1 + (x/EC50)^Hill slope], [1]
(§4) where y is the response value, x is the log concentration of the test compound, and EC50 is the concentration that induces half of the maximum proliferation effect or luciferase activity.
EC50 values were calculated from this nonlinear regression model. EC20 were calculated as […]

ER = target: T1, ER (Homo sapiens, UniProt P03372); experiment: MVLN assay (estrogen-responsive luciferase reporter transactivation); assay type: cell-based; conditions: for MVLN assay Maximum induction (%): percentage of the maximum induction (luciferase) of tested compound to that of E2, 2 days exposure; for Luciferase activity on coexposure with OHT: OHT 10 nM coexposed with 100 μM PFHxI, 100 μM PFOI, 100 μM PFBDI, 20 μM PFHxDI or 40 μM PFODI; for MVLN assay Relative potency: footnote: ratio of EC50 of E2 to that of test compound, text: based on EC20; for MVLN assay EC20: luciferase activity, 2 days, from Hill slope and EC50; for Luciferase induction / estrogenic effect in the MVLN assay (in words): within the tested concentration ranges
T1 construct: This cell line was stably transfected with the luciferase reporter gene and estrogen-responsive element derived from the Xenopus vitellogenin A2 gene; endogenous in cells; host or cells: MVLN cells (provided by J.P. Giesy)
T1 sequence (P03372 1-595): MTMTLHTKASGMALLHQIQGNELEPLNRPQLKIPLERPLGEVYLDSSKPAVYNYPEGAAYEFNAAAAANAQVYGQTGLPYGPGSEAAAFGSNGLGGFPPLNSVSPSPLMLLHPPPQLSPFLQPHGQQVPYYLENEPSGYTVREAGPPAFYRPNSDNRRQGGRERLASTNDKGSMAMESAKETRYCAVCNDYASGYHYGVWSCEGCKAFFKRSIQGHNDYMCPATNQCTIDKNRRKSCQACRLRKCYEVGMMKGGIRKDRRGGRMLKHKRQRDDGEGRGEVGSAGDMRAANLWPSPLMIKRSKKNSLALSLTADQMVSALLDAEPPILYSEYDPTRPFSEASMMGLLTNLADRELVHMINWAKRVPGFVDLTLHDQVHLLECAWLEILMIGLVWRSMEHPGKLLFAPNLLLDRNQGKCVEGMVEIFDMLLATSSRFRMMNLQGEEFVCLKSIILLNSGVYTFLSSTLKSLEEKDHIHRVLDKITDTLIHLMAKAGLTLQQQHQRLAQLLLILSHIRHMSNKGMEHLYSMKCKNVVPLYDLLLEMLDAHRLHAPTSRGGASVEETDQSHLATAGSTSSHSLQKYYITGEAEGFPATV
Procedure: as §1
MVLN assay. The MVLN cell line was kindly provided by J.P. Giesy (Michigan State University, East Lansing, MI, USA). This cell line was stably transfected with the luciferase reporter gene and estrogen-responsive element derived from the Xenopus vitellogenin A2 gene. […] Cells were seeded in the interior 60 wells of a 96-well ViewPlate (Packard Instrument Company, Boston, MA, USA) at a density of 7 × 10^4 cells/well, starved in SF medium for 48 hr, and exposed to test compounds for 2 days. […] Luciferase activity was measured with the LucLite kit (Packard Instruments) according to the manufacturer’s protocol. We measured luminescence by microplate reader (Varioskan Flash) and integrated the luminescence signal for 10 sec. Total protein content was measured by the Bradford assay (Tiangen, Beijing, China) to normalize luminescent units. The results are given as relative luminescent unit per microgram protein. The maximal induction of positive control (corrected for solvent control, 0.1–0.2% ethanol) was set as 100%, and the responses of other chemicals were converted to a percentage of the maximum level. Three replicates were used in each experiment. The cytotoxicity of tested chemicals was examined by WST-1 kit in parallel and routinely observed under microscope to identify the exposure concentration range.
as §2, §3, §4
EC50 values were calculated from this nonlinear regression model. EC20 were calculated as
ECx = [x/(100 – x)]^(1/Hill slope) × EC50, [2]

EGR3 = experiment: Expression of estrogen-responsive gene EGR3 (quantitative RT-PCR); assay type: cell-based, Human; conditions: MCF-7 cells, 48 hr, vs 0.1% ethanol; 50 μM PFBI, PFHxI, PFOI, PFBDI, PFOA, PFOC, PFOB, 1-iodohexane, 4:2 FTI, 6:2 FTI; 40 μM PFDI, PFDoI, PFODI, 8:2 FTI, 10:2 FTI; 20 μM PFHxDI; 100 pM E2
Procedure: RNA isolation and reverse transcription polymerase chain reaction (RT-PCR). MCF-7BUS cells were seeded in six-well plates at the density of 1.0 × 10^6 cells per well, starved in SF medium for 48 hr, and exposed to test compounds for 48 hr. First, cells were rinsed twice with cold phosphate-buffered saline, and total RNA was isolated using Trizol reagent (Invitrogen Inc., Carlsbad, CA, USA) following the manufacturer’s protocol. The 260 nm and 280 nm absorbance reading of total RNA was performed using a Nanodrop spectrophotometer (Thermo Scientific, Waltham, MA, USA). The concentration of RNA was quantified by the reading at 260 nm.
We used a two-step quantitative RT-PCR to quantify gene expression. Total RNA was converted to cDNA using M-MLV (Moloney murine leukemia virus) reverse transcriptase (Promega, Madison, WI, USA) with oligo dT(15), following the manufacturer’s instructions. The final cDNA solution was diluted five times with DNase/RNase-free water (Gibco). Quantitative PCR was performed with a Stratagene MX3005 thermal cycler (Stratagene, La Jolla, CA, USA). PCR reaction mixtures (25 μL) contained 12.5 μL GoTaq Green Master Mix (Promega), 2 μL diluted cDNA, and 0.2 μM sense/antisense primers. The thermal cycle was 5 min at 95°C, followed by 45 cycles of 15 sec at 95°C, 30 sec at 55°C, and 30 sec at 72°C. The primer sequences of early growth response protein 3 (EGR3) were derived from [Terasaka et al. (2004)]. We designed the primers of internal gene β-actin and trefoil factor 1 (TFF1; pS2) with Primer Premier 5 software (Premier Biosoft International, Palo Alto, CA, USA). The primer sequences were as follows: for β-actin (NM_001101), 5´-CACTCT[…]TCCTTCC-3´ (forward) and 5´-[…][…]-3´ (reverse); for EGR3 (NM_004430), 5´-CCATGATTC[…]-3´ (forward) and 5´-GTGGATCTGCTTGTCTTTGAATG-3´ (reverse); and for TFF1 (NM_003225), 5´-AGAAGCG […]-3´ (forward) and 5´-[…][…]-3´ (reverse). The quantification of target gene expression was based on a comparative cycle threshold (Ct) value. We normalized the expression level of each target gene to its reference gene β-actin. The fold change of the target genes was analyzed by the 2^−ΔΔCt method ([Livak and Schmittgen 2001]). We used melting curve analysis and agarose gel electrophoresis to verify the correct PCR products.

Structure (SMILES)	E-screen Maximum induction (%) (MCF-7BUS cells)	MVLN assay Maximum induction (%) (ER)	EC50 (MCF-7BUS cells) [nM]	E-screen Relative potency (MCF-7BUS cells)	EC50 (ER) [µM]	Luciferase activity on coexposure with OHT (ER)	MVLN assay Relative potency (ER)	MVLN assay EC20 (ER) [µM]	EGR3 mRNA expression, fold up-regulation (EGR3) [fold]	Proliferation / estrogenic effect in the E-screen assay (in words) (MCF-7BUS cells)	Luciferase induction / estrogenic effect in the MVLN assay (in words) (ER)	EC50 (MCF-7BUS cells; MCF-7BUS proliferation, 6 days) [nM]
FC(F)(F)C(F)(F)C(F)(F)C(F)(F)C(F)(F)C(F)(F)CCI [6:2 FTI, 1H,1H,2H,2H-perfluorooctyl iodide]	NDd (The maximum relative proliferation effect was < 7%)	NDe (The maximum relative luciferase activity was < 5%)										
FC(F)(F)C(F)(F)C(F)(F)C(F)(F)CCI [4:2 FTI, 1H,1H,2H,2H-perfluorohexyl iodide]	NDd (The maximum relative proliferation effect was < 7%)	NDe (The maximum relative luciferase activity was < 5%)										
FC(F)(I)C(F)(F)C(F)(F)C(F)(F)C(F)(F)C(F)(F)I [PFHxDI, Dodecafluoro-1,6-diiodohexane]	100%	73%	7.5	4.2 × 10^–4	1.13	marked reduction of luciferase activity	1.1 × 10^–5	0.38	9.1			
FC(F)(I)C(F)(F)C(F)(F)C(F)(F)I [PFBDI, Octafluoro-1,4-diiodobutane]	97%	21%	1450	2.2 × 10^–6	29.6	marked reduction of luciferase activity	0.3 × 10^–6	13.8	2.4			
FC(F)(F)C(F)(F)C(F)(F)C(F)(F)C(F)(F)C(F)(F)C(F)(F)C(F)(F)CCI [8:2 FTI, 1H,1H,2H,2H-perfluorodecyl iodide]	NDd (The maximum relative proliferation effect was < 7%)	NDe (The maximum relative luciferase activity was < 5%)										
FC(F)(F)C(F)(F)C(F)(F)C(F)(F)C(F)(F)C(F)(F)C(F)(F)C(F)(F)I [PFOI, 1-iodoperfluorooctane]	101%	25%	1150	2.7 × 10^–6	35.1	marked reduction of luciferase activity	0.2 × 10^–6	20.4	3.6	produced full concentration–response curves	induced luciferase activity in a dose-related manner	
FC(F)(F)C(F)(F)C(F)(F)C(F)(F)C(F)(F)C(F)(F)C(F)(F)C(F)(F)C(F)(F)C(F)(F)CCI [10:2 FTI, 1H,1H,2H,2H-perfluorododecyl iodide]	NDd (The maximum relative proliferation effect was < 7%)	NDe (The maximum relative luciferase activity was < 5%)										
C[C@]12CC[C@@H]3c4ccc(O)cc4CC[C@H]3[C@@H]1CC[C@@H]2O [E2, 17β-estradiol, reference compound]	100%											0.00312
FC(F)(F)C(F)(F)C(F)(F)C(F)(F)C(F)(F)C(F)(F)I [PFHxI, 1-iodoperfluorohexane]	99%	47%	630	4.9 × 10^–6	26.7	marked reduction of luciferase activity	0.29 × 10^–6	14.1	2.4	produced full concentration–response curves	induced luciferase activity in a dose-related manner	
FC(F)(I)C(F)(F)C(F)(F)C(F)(F)C(F)(F)C(F)(F)C(F)(F)C(F)(F)I [PFODI, Hexadecafluoro-1,8-diiodooctane]	105%	38%	43.3	7.2 × 10^–5	2.87	marked reduction of luciferase activity	3.8 × 10^–6	1.07	11.2			
